Measurements reported in ChEMBL document CHEMBL5352433, “Design, synthesis, and biological evaluation of low-toxic lappaconitine derivatives as potential analgesics” (Eur J Med Chem, 2022).

Tests used:
Mus musculus [1] = assay: Analgesic activity against acetic acid-induced Kunming writhing mouse model assessed as inhibition of writhing at 3.5 mg/kg, sc pretreated with compound for 15 mins followed by acetic acid addition and measured after 15 mins relative to control; format: functional; details: 0.5 h, time 30 min
[2] = biological target: T1, Voltage-gated inwardly rectifying potassium channel KCNH2 (Homo sapiens, UniProt Q12809); assay: Inhibition of hERG expressed in HEK cells assessed as Rb+ efflux ratio at 1 mg/L incubated for 4 mins (reference value: 79.71 to 94.98 %); format: toxicity, cell-based; parameters: scale not given: the % may be the effect or the level left; details: at 1 µg/mL
[3] = biological target: T1, Voltage-gated inwardly rectifying potassium channel KCNH2; assay: Inhibition of hERG expressed in HEK cells assessed as Rb+ efflux ratio at 10 mg/L incubated for 4 mins (reference value: 79.71 to 94.98 %); format: toxicity, cell-based; parameters: scale not given: the % may be the effect or the level left; details: at 10 µg/mL
[4] = biological target: T1, Voltage-gated inwardly rectifying potassium channel KCNH2; assay: Inhibition of hERG expressed in HEK cells assessed as Rb+ efflux ratio at 100 mg/L incubated for 4 mins (reference value: 79.71 to 94.98 %); format: toxicity, cell-based; parameters: scale not given: the % may be the effect or the level left; details: at 100 µg/mL
Mus musculus [5] = assay: Analgesic activity against sc dosed acetic acid-induced Kunming writhing mouse model assessed as inhibition of writhing pretreated with compound for 15 mins followed by acetic acid addition and measured after 15 mins; format: functional; details: 0.5 h, time 30 min
[6] = Acute toxicity in sc dosed Kunming mouse assessed as mortality rate measured after 24 hrs; format: organism-based; details: in vivo
[7] = Therapeutic index, ratio of LD50 for acute toxicity in sc dosed Kunming mouse to ratio of ED50 for analgesic activity against sc dosed acetic acid-induced Kunming writhing mouse model; format: organism-based; details: in vivo, read-out: TI
Mus musculus [8] = assay: Analgesic activity against acetic acid-induced Kunming writhing mouse model assessed as inhibition of writhing at 10 mg/kg, sc pretreated with compound for 15 mins followed by acetic acid addition and measured after 15 mins relative to control; format: functional; details: 0.5 h, time 30 min
[9] = Drug metabolism in sc dosed acetic acid-induced Kunming writhing mouse model assessed as metabolites in feces; format: ADME, organism-based; details: in vivo
[10] = Drug metabolism in sc dosed acetic acid-induced Kunming writhing mouse model assessed as metabolites in urine; format: ADME, organism-based; details: in vivo

T1 sequence (Q12809 whole entry): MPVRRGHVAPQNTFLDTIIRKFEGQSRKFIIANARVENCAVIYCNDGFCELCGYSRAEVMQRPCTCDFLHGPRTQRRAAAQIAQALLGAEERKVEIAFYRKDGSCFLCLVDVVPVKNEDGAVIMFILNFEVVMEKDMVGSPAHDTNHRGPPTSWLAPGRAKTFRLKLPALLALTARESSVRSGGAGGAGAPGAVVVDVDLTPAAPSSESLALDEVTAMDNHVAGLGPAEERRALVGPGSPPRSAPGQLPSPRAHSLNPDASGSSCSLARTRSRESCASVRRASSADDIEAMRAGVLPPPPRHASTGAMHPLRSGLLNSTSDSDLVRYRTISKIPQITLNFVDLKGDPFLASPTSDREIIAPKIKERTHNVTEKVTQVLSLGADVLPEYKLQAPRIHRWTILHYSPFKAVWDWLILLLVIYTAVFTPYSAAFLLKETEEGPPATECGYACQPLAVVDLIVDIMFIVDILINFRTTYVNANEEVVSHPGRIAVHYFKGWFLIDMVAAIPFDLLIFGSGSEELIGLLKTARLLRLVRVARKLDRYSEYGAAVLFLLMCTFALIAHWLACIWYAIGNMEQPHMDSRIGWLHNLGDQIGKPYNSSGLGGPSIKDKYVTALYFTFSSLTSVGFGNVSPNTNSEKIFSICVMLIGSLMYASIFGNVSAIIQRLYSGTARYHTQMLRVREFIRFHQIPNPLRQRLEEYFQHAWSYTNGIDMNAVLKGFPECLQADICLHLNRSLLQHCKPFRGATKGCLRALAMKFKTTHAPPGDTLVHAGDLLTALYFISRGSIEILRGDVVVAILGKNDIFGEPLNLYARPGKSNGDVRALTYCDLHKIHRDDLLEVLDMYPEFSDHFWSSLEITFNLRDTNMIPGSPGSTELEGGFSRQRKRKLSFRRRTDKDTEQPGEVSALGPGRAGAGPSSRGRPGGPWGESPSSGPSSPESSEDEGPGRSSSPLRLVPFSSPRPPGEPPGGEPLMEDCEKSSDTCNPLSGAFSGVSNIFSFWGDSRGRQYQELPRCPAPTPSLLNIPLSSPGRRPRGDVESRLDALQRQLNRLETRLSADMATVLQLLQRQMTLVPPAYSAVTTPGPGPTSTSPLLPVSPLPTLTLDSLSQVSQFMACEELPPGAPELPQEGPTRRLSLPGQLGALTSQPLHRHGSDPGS

Structure (SMILES) | inhibition in vivo at 3.5 mg/kg (Mus musculus [1]) [%] | Activity [2] [%] | Activity [3] [%] | Activity [4] [%] | ED50 (Mus musculus [5]) [mg/kg] | LD50 at 24 h [6] [mg/kg] | selectivity ratio [7] | inhibition in vivo at 10 mg/kg (Mus musculus [8]) [%] | Drug metabolism [9] | Drug metabolism [10]
CCN1C[C@]2(OC(=O)c3ccccc3NC(=O)CC(C)(C)C)CC[C@H](OC)[C@]34C1[C@H](C[C@H]23)[C@@]1(O)C[C@H](OC)[C@H]2C[C@@H]4[C@]1(O)[C@H]2OC | 24.9 |  |  |  |  |  |  |  |  | 
CCN1C[C@]2(OC(=O)c3ccccc3N)CC[C@H](OC)[C@]34C1[C@H](C[C@H]23)[C@@]1(O)C[C@H](OC)[C@H]2C[C@@H]4[C@]1(O)[C@H]2OC |  | 96.05 | 92.35 | 65.7 |  |  |  |  |  | 
C/C=C/C(=O)Nc1ccccc1C(=O)O[C@@]12CC[C@H](OC)[C@]34C([C@H](C[C@H]13)[C@@]1(O)C[C@H](OC)[C@H]3C[C@@H]4[C@]1(O)[C@H]3OC)N(CC)C2 | 24.4 |  |  |  |  |  |  |  |  | 
CCN1C[C@]2(OC(=O)c3ccccc3NC(=O)C3CC3)CC[C@H](OC)[C@]34C1[C@H](C[C@H]23)[C@@]1(O)C[C@H](OC)[C@H]2C[C@@H]4[C@]1(O)[C@H]2OC | 33.5 |  |  |  |  |  |  |  |  | 
CCN1C[C@]2(OC(=O)c3ccccc3NC(C)=O)CC[C@H](OC)[C@]34C1[C@H](C[C@H]23)[C@@]1(O)C[C@H](OC)[C@H]2C[C@@H]4[C@]1(O)[C@H]2OC | 56.6 |  |  |  | 3.5 | 11.7 |  |  |  | 
CCOc1ccc(C(=O)Nc2ccccc2C(=O)O[C@@]23CC[C@H](OC)[C@]45C([C@H](C[C@H]24)[C@@]2(O)C[C@H](OC)[C@H]4C[C@@H]5[C@]2(O)[C@H]4OC)N(CC)C3)cc1 |  | 79.38 | 80.07 | 76.45 | 6.6 | 315 | 47.7 | 62.8 |  | 
CCN1C[C@]2(OC(=O)c3ccccc3NC(=O)c3ccc(OC(C)C)cc3)CC[C@H](OC)[C@]34C1[C@H](C[C@H]23)[C@@]1(O)C[C@H](OC)[C@H]2C[C@@H]4[C@]1(O)[C@H]2OC |  |  |  |  | 8.1 | 196 | 24.2 | 51.1 |  | 
CCN1C[C@]2(OC(=O)c3ccccc3NS(=O)(=O)c3ccccc3OC)CC[C@H](OC)[C@]34C1[C@H](C[C@H]23)[C@@]1(O)C[C@H](OC)[C@H]2C[C@@H]4[C@]1(O)[C@H]2OC |  | 80.88 | 65.13 | 50.83 | 5.5 | 300 | 54.5 | 71.2 | Metabolite_Detected | Metabolite_Detected
CCN1C[C@]2(OC(=O)c3ccccc3NS(=O)(=O)c3ccccc3)CC[C@H](OC)[C@]34C1[C@H](C[C@H]23)[C@@]1(O)C[C@H](OC)[C@H]2C[C@@H]4[C@]1(O)[C@H]2OC |  | 88.87 | 72.11 | 44.12 | 6.1 | > 600 | > 98.3 | 84.3 | Metabolite_Detected | Metabolite_Detected
CCN1C[C@]2(OC(=O)c3ccccc3NC(=O)c3ccc(OC)cc3)CC[C@H](OC)[C@]34C1[C@H](C[C@H]23)[C@@]1(O)C[C@H](OC)[C@H]2C[C@@H]4[C@]1(O)[C@H]2OC |  | 77 | 76.58 | 69.69 | 4.4 | 296 | 67.4 | 62.8 |  | 
CCCOc1ccc(C(=O)Nc2ccccc2C(=O)O[C@@]23CC[C@H](OC)[C@]45C([C@H](C[C@H]24)[C@@]2(O)C[C@H](OC)[C@H]4C[C@@H]5[C@]2(O)[C@H]4OC)N(CC)C3)cc1 |  |  |  |  | 10.2 | 214 | 20.9 | 48.4 |  | 
CCN1C[C@]2(OC(=O)c3ccccc3NC(=O)c3cccc(C)c3)CC[C@H](OC)[C@]34C1[C@H](C[C@H]23)[C@@]1(O)C[C@H](OC)[C@H]2C[C@@H]4[C@]1(O)[C@H]2OC |  |  |  |  |  |  |  | 36.9 |  | 
